In publication PMC5674802 (Molecular cell, 2017):

Biological target: RagA-RagC heterodimer, RagC nucleotide site (Homo sapiens, UniProt Q9HB90)
Experiment: UV crosslinking of radiolabelled nucleotide, SDS-PAGE autoradiography
Assay type: binding

RagA-RagC heterodimer, RagC nucleotide site, sequence (Q9HB90 2-399): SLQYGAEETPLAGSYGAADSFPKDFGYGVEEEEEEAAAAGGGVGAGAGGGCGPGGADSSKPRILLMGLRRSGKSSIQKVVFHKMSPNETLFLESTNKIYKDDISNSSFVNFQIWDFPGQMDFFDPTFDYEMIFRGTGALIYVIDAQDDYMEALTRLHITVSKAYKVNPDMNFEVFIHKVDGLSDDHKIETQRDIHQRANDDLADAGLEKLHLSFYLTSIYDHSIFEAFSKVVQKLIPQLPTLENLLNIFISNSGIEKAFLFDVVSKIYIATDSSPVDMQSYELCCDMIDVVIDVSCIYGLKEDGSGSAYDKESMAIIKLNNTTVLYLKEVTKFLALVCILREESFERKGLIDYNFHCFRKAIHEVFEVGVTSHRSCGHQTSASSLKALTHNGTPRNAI
RagA-RagC heterodimer, RagC nucleotide site, sequence (Q7L523 whole entry partner): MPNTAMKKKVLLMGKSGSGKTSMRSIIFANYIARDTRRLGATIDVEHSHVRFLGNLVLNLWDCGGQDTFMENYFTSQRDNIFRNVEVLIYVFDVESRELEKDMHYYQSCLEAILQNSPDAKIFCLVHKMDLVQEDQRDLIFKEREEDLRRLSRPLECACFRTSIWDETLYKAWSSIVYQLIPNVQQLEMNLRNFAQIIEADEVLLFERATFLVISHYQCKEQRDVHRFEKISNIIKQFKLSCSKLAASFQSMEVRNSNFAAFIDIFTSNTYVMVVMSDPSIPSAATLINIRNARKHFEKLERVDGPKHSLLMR

`Nc1nc2c(ncn2[C@@H]2O[C@H](COP(=O)(O)OP(=O)(O)OP(=O)(O)O)[C@@H](O)[C@H]2O)c(=O)[nH]1` [GTP] was tested, and the Kd was 11 nM.
